Assay results as given in patent publication US9957268B2, “1H-pyrrolo[2,3,c]pyridin-7(6H)-ones and pyrazolo[3,4-c]pyridin-7(6H)-ones as inhibitors of BET proteins” (Incyte Corporation, priority 2014, dated 2018).

Experiments:
BRD4-BD1 = BRD4-BD1 (Homo sapiens (Human), UniProt O60885); experiment: BRD4 AlphaScreen assay (BRD4-BD1); type: binding; conditions: biotin-labeled tetra-acetylated histone H4 peptide
Outline: (§1)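 AlphaScreen displacement at room temperature: 75 min with biotin-H4Ac4 peptide (50 nM) and sub-nanomolar BRD4-BD1 or BD2, then 75 min dark incubation with donor/acceptor beads (2-4 μg/mL). Buffer Tris-HCl pH 7.5 with Tween-20, BSA, DTT; DMSO 1.25% for BD1, 0.83% for BD2. IC50 by curve fitting.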

BRD4-BD2 = BRD4-BD2 (Homo sapiens (Human), UniProt O60885); experiment: BRD4 AlphaScreen assay (BRD4-BD2); type: binding; conditions: biotin-labeled tetra-acetylated histone H4 peptide
Outline: as §1

SMILES	IC50 (BRD4-BD1) [µM]	IC50 (BRD4-BD2) [µM]
CC(=O)c1cc2c(c(-c3cn(C)c(=O)c4[nH]ccc34)c1)OC(C(C)C)C(=O)N2 (stereo not drawn) [Example 49, 6-acetyl-2-isopropyl-8-(6-methyl-7-oxo-6,7-dihydro-1H-pyrrolo[2,3-c]pyridin-4-yl)-2H-1,4-benzoxazin-3(4H)-one]	≤ 0.1	≤ 0.1
CN1C(=O)C2(CC2)Oc2c(-c3cn(C)c(=O)c4[nH]ccc34)cc(S(C)(=O)=O)cc21 [Example 63, 4-methyl-8-(6-methyl-7-oxo-6,7-dihydro-1H-pyrrolo[2,3-c]pyridin-4-yl)-6-(methylsulfonyl)spiro[1,4-benzoxazine-2,1′-cyclopropan]-3(4H)-one]	≤ 0.1	≤ 0.1
Cn1cc(-c2cc(S(C)(=O)=O)cc3c2OC2(CC2)C(=O)N3)c2cn[nH]c2c1=O [Example 65, 8-(6-methyl-7-oxo-6,7-dihydro-1H-pyrazolo[3,4-c]pyridin-4-yl)-6-(methylsulfonyl)spiro[1,4-benzoxazine-2,1′-cyclopropan]-3(4H)-one]	≤ 0.1	≤ 0.1
CN1C(=O)C2(CC2)Oc2c(-c3cn(C)c(=O)c4[nH]ncc34)cc(S(C)(=O)=O)cc21 [Example 66, 4-methyl-8-(6-methyl-7-oxo-6,7-dihydro-1H-pyrazolo[3,4-c]pyridin-4-yl)-6-(methylsulfonyl)spiro[1,4-benzoxazine-2,1′-cyclopropan]-3(4H)-one]	≤ 0.1	≤ 0.1
CNS(=O)(=O)c1cc2c(c(-c3cn(C)c(=O)c4[nH]ccc34)c1)OC(C(C)C)C(=O)N2 (stereo not drawn) [Example 68, 2-isopropyl-N-methyl-8-(6-methyl-7-oxo-6,7-dihydro-1H-pyrrolo[2,3-c]pyridin-4-yl)-3-oxo-3,4-dihydro-2H-1,4-benzoxazine-6-sulfonamide]	≤ 0.1	≤ 0.1
CC(C)C1Oc2c(-c3cn(C)c(=O)c4[nH]ccc34)cc(S(=O)(=O)N(C)C)cc2N(C)C1=O (stereo not drawn) [Example 71, 2-isopropyl-N,N,4-trimethyl-8-(6-methyl-7-oxo-6,7-dihydro-1H-pyrrolo[2,3-c]pyridin-4-yl)-3-oxo-3,4-dihydro-2H-1,4-benzoxazine-6-sulfonamide]	≤ 0.1	≤ 0.1
Cn1cc(-c2cc(S(=O)(=O)N3CCCCC3)cc3c2OC(C)(C)C(=O)N3)c2cc[nH]c2c1=O [Example 72, 2,2-dimethyl-8-(6-methyl-7-oxo-6,7-dihydro-1H-pyrrolo[2,3-c]pyridin-4-yl)-6-(piperidin-1-ylsulfonyl)-2H-1,4-benzoxazin-3(4H)-one]	≤ 0.1	≤ 0.1
CN1C(=O)C(C)(C)Oc2c(-c3cn(C)c(=O)c4[nH]ccc34)cc(S(=O)(=O)N3CCCCC3)cc21 [Example 73, 2,2,4-trimethyl-8-(6-methyl-7-oxo-6,7-dihydro-1H-pyrrolo[2,3-c]pyridin-4-yl)-6-(piperidin-1-ylsulfonyl)-2H-1,4-benzoxazin-3(4H)-one]	≤ 0.1	≤ 0.1
CN1C(=O)C(C)(C)Oc2c(-c3cn(C)c(=O)c4[nH]ccc34)cc(S(C)(=O)=O)cc21 [Example 75, 2,2,4-trimethyl-8-(6-methyl-7-oxo-6,7-dihydro-1H-pyrrolo[2,3-c]pyridin-4-yl)-6-(methylsulfonyl)-2H-1,4-benzoxazin-3(4H)-one]	≤ 0.1	≤ 0.1
CCS(=O)(=O)c1cc(-c2cn(C)c(=O)c3[nH]ccc23)c2c(c1)N(C)C(=O)C(C)(C)O2 [Example 76, 6-(ethylsulfonyl)-2,2,4-trimethyl-8-(6-methyl-7-oxo-6,7-dihydro-1H-pyrrolo[2,3-c]pyridin-4-yl)-2H-1,4-benzoxazin-3(4H)-one]	≤ 0.1	≤ 0.1
CCS(=O)(=O)c1cc2c(c(-c3cn(C)c(=O)c4[nH]ccc34)c1)OC(C)(C)C(=O)N2 [Example 78, 6-(ethylsulfonyl)-2,2-dimethyl-8-(6-methyl-7-oxo-6,7-dihydro-1H-pyrrolo[2,3-c]pyridin-4-yl)-2H-1,4-benzoxazin-3(4H)-one]	≤ 0.1	≤ 0.1
CC(C)S(=O)(=O)c1cc2c(c(-c3cn(C)c(=O)c4[nH]ccc34)c1)OC(C)(C)C(=O)N2 [Example 79, 6-(isopropylsulfonyl)-2,2-dimethyl-8-(6-methyl-7-oxo-6,7-dihydro-1H-pyrrolo[2,3-c]pyridin-4-yl)-2H-1,4-benzoxazin-3(4H)-one]	≤ 0.1	≤ 0.1
CC(=O)c1cc2c(c(-c3cn(C)c(=O)c4[nH]ccc34)c1)OC(C)(C)C(=O)N2 [Example 80, 6-acetyl-2,2-dimethyl-8-(6-methyl-7-oxo-6,7-dihydro-1H-pyrrolo[2,3-c]pyridin-4-yl)-2H-1,4-benzoxazin-3(4H)-one]	≤ 0.1	≤ 0.1
CC(O)c1cc2c(c(-c3cn(C)c(=O)c4[nH]ccc34)c1)OC(C)(C)C(=O)N2 (stereo not drawn) [Example 81, 6-(1-hydroxyethyl)-2,2-dimethyl-8-(6-methyl-7-oxo-6,7-dihydro-1H-pyrrolo[2,3-c]pyridin-4-yl)-2H-1,4-benzoxazin-3(4H)-one]	≤ 0.1	≤ 0.1
CC(=O)c1cc(-c2cn(C)c(=O)c3[nH]ccc23)c2c(c1)N(C)C(=O)C(C)(C)O2 [Example 82, 6-acetyl-2,2,4-trimethyl-8-(6-methyl-7-oxo-6,7-dihydro-1H-pyrrolo[2,3-c]pyridin-4-yl)-2H-1,4-benzoxazin-3(4H)-one]	≤ 0.1	≤ 0.1
CC(O)c1cc(-c2cn(C)c(=O)c3[nH]ccc23)c2c(c1)N(C)C(=O)C(C)(C)O2 (stereo not drawn) [Example 83, 6-(1-hydroxyethyl)-2,2,4-trimethyl-8-(6-methyl-7-oxo-6,7-dihydro-1H-pyrrolo[2,3-c]pyridin-4-yl)-2H-1,4-benzoxazin-3(4H)-one]	≤ 0.1	≤ 0.1

The next lines start with the values.

IC50 (BRD4-BD1) [µM]	IC50 (BRD4-BD2) [µM]	SMILES
≤ 0.1	≤ 0.1	CC(O)c1cc2c(c(-c3cn(C)c(=O)c4[nH]ccc34)c1)OC(C(C)C)C(=O)N2 (stereo not drawn) [Example 50, 6-(1-hydroxyethyl)-2-isopropyl-8-(6-methyl-7-oxo-6,7-dihydro-1H-pyrrolo[2,3-c]pyridin-4-yl)-2H-1,4-benzoxazin-3(4H)-one]
≤ 0.1	≤ 0.1	CCS(=O)(=O)c1cc2c(c(-c3cn(C)c(=O)c4[nH]ccc34)c1)OC(C(C)C)C(=O)N2 (stereo not drawn) [Example 51, 6-(ethylsulfonyl)-2-isopropyl-8-(6-methyl-7-oxo-6,7-dihydro-1H-pyrrolo[2,3-c]pyridin-4-yl)-2H-1,4-benzoxazin-3(4H)-one]
≤ 0.1	≤ 0.1	CC(C)C1Oc2c(-c3cn(C)c(=O)c4[nH]ccc34)cc(S(C)(=O)=O)cc2N(CC2CC2)C1=O (stereo not drawn) [Example 53, 4-(cyclopropylmethyl)-2-isopropyl-8-(6-methyl-7-oxo-6,7-dihydro-1H-pyrrolo[2,3-c]pyridin-4-yl)-6-(methyslulfonyl)-2H-1,4-benzoxazin-3(4H)-one]
≤ 0.1	≤ 0.1	CC(C)C1Oc2c(-c3cn(C)c(=O)c4[nH]ccc34)cc(S(=O)(=O)C(C)C)cc2N(C)C1=O (stereo not drawn) [Example 56, 2-isopropyl-6-(isopropylsulfonyl)-4-methyl-8-(6-methyl-7-oxo-6,7-dihydro-1H-pyrrolo[2,3-c]pyridin-4-yl)-2H-1,4-benzoxazin-3(4H)-one]
≤ 0.1	≤ 0.1	Cn1cc(-c2cc(S(C)(=O)=O)cc3c2OC2(CC2)C(=O)N3)c2cc[nH]c2c1=O [Example 57, 8-(6-methyl-7-oxo-6,7-dihydro-1H-pyrrolo[2,3-c]pyridin-4-yl)-6-(methylsulfonyl)spiro[1,4-benzoxazine-2,1′-cyclopropan]-3(4H)-one]
≤ 0.1	≤ 0.1	Cn1cc(-c2cc(S(C)(=O)=O)cc3c2NC(C)(C)C(=O)N3)c2cc[nH]c2c1=O [Example 58, 3,3-dimethyl-5-(6-methyl-7-oxo-6,7-dihydro-1H-pyrrolo[2,3-c]pyridin-4-yl)-7-(methylsulfonyl)-3,4-dihydroquinoxalin-2(1H)-one]
≤ 0.1	≤ 0.1	Cn1cc(-c2cc(S(C)(=O)=O)cc3c2NC2(CCCC2)C(=O)N3)c2cc[nH]c2c1=O [Example 59, 8′-(6-methyl-7-oxo-6,7-dihydro-1H-pyrrolo[2,3-c]pyridin-4-yl)-6′-(methylsulfonyl)-1′,4′-dihydro-3′H-spiro[cyclopentane-1,2′-quinoxalin]-3′-one]
≤ 0.1	≤ 0.1	CC(C)[C@@H]1Nc2c(cc(S(C)(=O)=O)cc2-c2cn(C)c(=O)c3[nH]ccc23)NC1=O [Example 60, (3S)-3-isopropyl-5-(6-methyl-7-oxo-6,7-dihydro-1H-pyrrolo[2,3-c]pyridin-4-yl)-7-(methylsulfonyl)-3,4-dihydroquinoxalin-2(1H)-one]
≤ 0.1	≤ 0.1	CC(C)[C@H]1Nc2c(cc(S(C)(=O)=O)cc2-c2cn(C)c(=O)c3[nH]ccc23)NC1=O [Example 61, (3R)-3-isopropyl-5-(6-methyl-7-oxo-6,7-dihydro-1H-pyrrolo[2,3-c]pyridin-4-yl)-7-(methylsulfonyl)-3,4-dihydroquinoxalin-2(1H)-one]
≤ 0.1	≤ 0.1	Cn1cc(-c2cc(S(C)(=O)=O)cc3c2NC2(CCC2)C(=O)N3)c2cc[nH]c2c1=O [Example 62, 8′-(6-methyl-7-oxo-6,7-dihydro-1H-pyrrolo[2,3-c]pyridin-4-yl)-6′-(methylsulfonyl)-1′,4′-dihydro-3′H-spiro[cyclobutane-1,2′-quinoxalin]-3′-one]
